Assay [1] deals with T1, USP7 (Homo sapiens, UniProt Q93009, C315A).
T1 construct: 0.25 nM His-His-USP7 (aa208-560, |C315A|) was incubated with compound; His-His (N)
Put plainly: Inhibition of USP7 by Fluorescence Intensity (FLINT) readings, Ubiquitin-Rhodamine-110 substrate. As to conditions: 0.25 nM His-His-USP7 (aa208-560), 60 minutes at 30° C. preincubation; Ki determined from IC50 according to Cer et al. Type of assay: biochemical. An outline of the steps: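 His-tagged USP7 (aa208-560, C315A), 0.25 nM, preincubated with compound 60 min at 30 °C in 100 mM Bicine pH 8.0, 0.01% Triton X-100, 1 mM TCEP, 10% DMSO. Ubiquitin-Rhodamine-110 (50 nM or 4 μM) added; kinetic fluorescence (Ex 485/Em 535 nm) over 21 min; IC50 from 11-point curves, Ki derived from IC50.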

The subject of assay [2] is Z138 mantle cell lymphoma tumour cell lines. Put plainly: In vitro cytotoxicity, MTT assay. Conditions: Homo sapiens, Z-138; Z138 cells, exposed to the test compounds for 96 hours. Type of assay: cell-based. Put shortly:
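Z138 cells exposed to compounds for 96 hours, then MTT added for 4 hours. Formazan absorbance at 540 nm serves as the measure of viable cell number.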

T1 sequence (Q93009 208-560 C315A): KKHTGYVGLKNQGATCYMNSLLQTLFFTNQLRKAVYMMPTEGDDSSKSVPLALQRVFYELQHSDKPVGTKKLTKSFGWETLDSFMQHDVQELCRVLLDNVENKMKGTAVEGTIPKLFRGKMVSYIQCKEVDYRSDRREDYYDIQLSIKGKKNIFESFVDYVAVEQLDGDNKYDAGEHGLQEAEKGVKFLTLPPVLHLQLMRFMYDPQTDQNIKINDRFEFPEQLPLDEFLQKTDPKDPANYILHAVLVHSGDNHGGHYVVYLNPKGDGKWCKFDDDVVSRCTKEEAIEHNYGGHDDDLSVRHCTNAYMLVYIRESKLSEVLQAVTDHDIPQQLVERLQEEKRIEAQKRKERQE

Take `Cc1ccc(-c2ncc(C(=O)N3CC[C@@H](C(=O)N4CCC(O)(Cn5cnc(Oc6ccc(F)cc6)c(N)c5=O)CC4)[C@H](c4ccccc4)C3)n2C)cn1` [Example 96, 5-amino-6-(4-fluorophenoxy)-3-[(4-hydroxy-1-{(3R,4R)-1-[1-methyl-2-(6-methylpyridin-3-yl)-1H-imidazole-5-carbonyl]-3-phenylpiperidine-4-carbonyl}piperidin-4-yl)methyl]pyrimidin-4(3H)-one]: in assay [1], the Ki (usually a dissociation constant, usually derived from enzyme kinetics or from competition with a known ligand) was found to be 7.21 nM. The IC50 (commonly the concentration needed to halve the response being measured) in assay [2] worked out at 27.3 nM.
On the same counts, the results for `Cc1cc(C(=O)N2CC[C@@H](C(=O)N3CCC(O)(Cn4cnc(Oc5ccc(F)cc5)c(N)c4=O)CC3)[C@H](c3ccccc3)C2)cc(C)n1` [Example 97, 5-amino-3-({1-[(3R,4R)-1-(2,6-dimethylpyridine-4-carbonyl)-3-phenylpiperidine-4-carbonyl]-4-hydroxypiperidin-4-yl}methyl)-6-(4-fluorophenoxy)pyrimidin-4(3H)-one] are 9.8 nM and 42.7 nM.
On the same counts, the results for `Nc1c(Oc2ccc(F)cc2)ncn(CC2(O)CCN(C(=O)[C@@H]3CCN(C(=O)c4cc(F)cc(Br)c4)C[C@H]3c3ccccc3)CC2)c1=O` [Example 98] are 3.05 nM and 7 nM.
On the same counts, the results for `Nc1c(Oc2cccc(C(F)(F)F)c2)ncn(CC2(O)CCN(C(=O)[C@@H]3CCN(C(=O)c4sc(I)cc4F)C[C@H]3c3ccccc3)CC2)c1=O` [Example 99, 5-amino-3-[[1-((3R,4R)-1-(3-fluoro-5-iodo-thiophene-2-carbonyl)-3-phenyl-piperidine-4-carbonyl]-4-hydroxy-4-piperidyl]methyl]-6-[3-(trifluoromethyl)phenoxy]pyrimidin-4-one] are 56 nM and 120 nM.
On to `Cc1nc(Br)sc1C(=O)N1CC[C@@H](C(=O)N2CCC(O)(Cn3cnc(Oc4cccc(C(F)(F)F)c4)c(N)c3=O)CC2)[C@H](c2ccccc2)C1` [Example 100, 5-amino-3-[[1-[(3R,4R)-1-(2-bromo-4-methyl-thiazole-5-carbonyl)-3-phenyl-piperidine-4-carbonyl]-4-hydroxy-4-piperidyl]methyl]-6-[3-(trifluoromethyl)phenoxy]pyrimidin-4-one], for which affinity in assay [1] was put at a Ki of 24 nM. Also, half-maximal inhibition in assay [2] (IC50) was put at 47.6 nM.
On the same counts, the results for `Cc1ccc(-c2cc(F)c(C(=O)N3CC[C@@H](C(=O)N4CCC(O)(Cn5cnc(Oc6cccc(C(F)(F)F)c6)c(N)c5=O)CC4)[C@H](c4ccccc4)C3)s2)cn1` [Example 101, 5-amino-3-[[1-[(3R,4R)-1-[3-fluoro-5-(46-methyl-3-pyridyl)thiophene-2-carbonyl]-3-phenyl-piperidine-4-carbonyl]-4-hydroxy-4-piperidyl]methyl]-6-[3-(trifluoromethyl)phenoxy]pyrimidin-4-one] are 11 nM and 25.3 nM.
On the same counts, the results for `Nc1c(Oc2ccc(F)cc2)ncn(CC2(O)CCN(C(=O)[C@@H]3CCN(C(=O)c4cccc5cnccc45)C[C@H]3c3ccccc3)CC2)c1=O` [Example 102, 5-amino-6-(4-fluorophenoxy)-3-({4-hydroxy-1-[(3R,4R)-1-(isoquinoline-5-carbonyl)-3-phenylpiperidine-4-carbonyl]piperidin-4-yl}methyl)pyrimidin-4(3H)-one] are 4.1 nM and 9.31 nM.
With `Cc1nc(-c2ccc(C(F)(F)F)nc2)sc1C(=O)N1CC[C@@H](C(=O)N2CC[C@](O)(Cn3cnc(Oc4ccc(F)cc4)c(N)c3=O)C(F)(F)C2)[C@H](c2ccccc2)C1` [Example 103], in assay [1], the inhibition constant Ki worked out at 6.4 nM. The compound also registered an IC50 in assay [2] of 6.63 nM.
In turn, `Nc1c(Oc2ccc(F)cc2)ncn(C[C@@]2(O)CCN(C(=O)[C@@H]3CCN(C(=O)c4sc(I)cc4F)C[C@H]3c3ccccc3)CC2(F)F)c1=O` [Example 104, 5-amino-3-[[(4S)-3,3-difluoro-1-[(3R,4R)-1-(3-fluoro-5-iodo-thiophene-2-carbonyl)-3-phenyl-piperidine-4-carbonyl]-4-hydroxy-4-piperidyl]methyl]-6-(4-fluorophenoxy)pyrimidin-4-one] came in with a Ki in assay [1] of 15 nM. The compound also had an IC50 in assay [2] of 37.2 nM.
In assay [1], `Cc1ccc(-c2cc(F)c(C(=O)N3CC[C@@H](C(=O)N4CC[C@](O)(Cn5cnc(Oc6ccc(F)cc6)c(N)c5=O)C(F)(F)C4)[C@H](c4ccccc4)C3)s2)cn1` [Example 105, 5-amino-3-([(4S)-3,3-difluoro-1-((3R,4R)-1-[3-fluoro-5-(6-methylpyridin-3-yl)thiophene-2-carbonyl]-3-phenylpiperidine-4-carbonyl}-4-hydroxypiperidin-4-yl}methyl}-6-(4-fluorophenoxy)pyrimidin-4(3H)-one] gave a Ki of 2.6 nM. The compound also registered an IC50 in assay [2] of 5.08 nM.
On the same counts, the results for `Nc1c(Oc2ccc(F)cc2)ncn(CC2(O)CCN(C(=O)[C@@H]3CCN(C(=O)c4sc(Cl)c(Br)c4F)C[C@H]3c3ccccc3)CC2)c1=O` [Example 106, 5-amino-3-[[I-[(3R,4R)-1-(4-bromo-5-chloro-3-fluoro-thiophene-2-carbonyl)-3-phenyl-piperidine-4-carbonyl]-4-hydroxy-4-piperidyl]methyl]-6-(4-fluorophenoxy)pyrimidin-4-one] are 15 nM and 18.6 nM.
Compound `Cc1ccc(-c2c(Cl)sc(C(=O)N3CC[C@@H](C(=O)N4CCC(O)(Cn5cnc(Oc6ccc(F)cc6)c(N)c5=O)CC4)[C@H](c4ccccc4)C3)c2F)cn1` [Example 107] yielded a Ki in assay [1] of 3.3 nM. The same compound showed an IC50 in assay [2] of 7.64 nM.
On the same counts, the results for `Nc1c(Oc2ccc(F)cc2)ncn(CC2(O)CCN(C(=O)[C@@H]3CCN(C4(c5ccccc5)COC4)C[C@H]3c3ccccc3)CC2)c1=O` [Example 108, 5-amino-6-(4-fluorophenoxy)-3-[[4-hydroxy-1-((3R,4R)-3-phenyl-1-(3-phenyloxetan-3-yl)piperidine-4-carbonyl]-4-piperidyl]methyl]pyrimidin-4-one] are 63 nM and 50 nM.
On the same counts, the results for `Nc1c(Oc2ccc(F)cc2)ncn(CC2(O)CCN(C(=O)[C@@H]3CCN(C4(c5ccccc5F)COC4)C[C@H]3c3ccccc3)CC2)c1=O` [Example 109] are 65 nM and 11 nM.
On the same counts, the results for `Nc1c(Oc2ccccc2)ncn(CC2(O)CCN(C(=O)[C@@H]3CCN(C4(c5ccccc5F)COC4)C[C@H]3c3ccccc3)CC2)c1=O` [Example 114] are 66 nM and 22 nM.
In assay [1], `Cc1ccc(-c2ccc(S(=O)(=O)N3CC[C@@H](C(=O)N4CCC(O)(Cn5cnc(Oc6ccc(F)cc6)c(N)c5=O)CC4)[C@H](c4ccccc4)C3)s2)cn1` [Example 117] registered a Ki of 28.6 nM. In addition, half-maximal inhibition in assay [2] (IC50) required 27.6 nM.
On the same counts, the results for `Cc1ccc(-c2nc(C)c(C(=O)N3CC[C@@H](C(=O)N4CC[C@](O)(Cn5cnc(Oc6ccccc6)c(N)c5=O)C(F)(F)C4)[C@H](c4ccccc4)C3)s2)cn1` [Example 119] are 1.53 nM and 4.3 nM.
`Cc1cc(C(=O)N2CC[C@@H](C(=O)N3CC[C@](O)(Cn4cnc(Oc5ccc(F)cc5)c(N)c4=O)C(F)(F)C3)[C@H](c3ccccc3)C2)nn1-c1ccccc1` [Example 120, 5-amino-3-({(4S)-3,3-difluoro-4-hydroxy-1-[(3R,4R)-1-(5-methyl-1-phenyl-1H-pyrazole-3-carbonyl)-3phenylpiperidine-4-carbonyl]piperidin-4-yl)methyl)-6(4-fluorophenoxy)pyrimidin-4(3H)-one] displayed a Ki in assay [1] of 45.4 nM. In assay [2], this compound returned an IC50 of 41.3 nM.
On the same counts, the results for `Cc1ccc(-c2cc(F)cc(C(=O)N3CC[C@@H](C(=O)N4CCC(O)(Cn5cnc(Oc6ccc(F)cc6)c(N)c5=O)CC4)[C@H](c4ccccc4)C3)c2)cn1` [Example 121] are 4.68 nM and 6.4 nM.
Consider `Nc1c(Oc2ccc(F)cc2)ncn(CC2(O)CCN(C(=O)[C@@H]3CCN(C(=O)c4cncc(C(F)(F)F)c4)C[C@H]3c3ccccc3)CC2)c1=O` [Example 122, 5-amino-6-(4-fluorophenoxy)-3-[(4-hydroxy-1-{(3R,4R)-3-phenyl-1-[5-(trifluoromethyl)pyridine-3-carbonyl]piperidine-4-carbonyl}piperidin-4-yl)methyl]pyrimidin-4(3H)-one], for which affinity in assay [1] was put at a Ki of 13.6 nM. Also, the IC50 in assay [2] was found to be 23 nM.
On the same counts, the results for `Cn1cnc2ccc(C(=O)N3CC[C@@H](C(=O)N4CCC(O)(Cn5cnc(Oc6ccc(F)cc6)c(N)c5=O)CC4)[C@H](c4ccccc4)C3)cc2c1=O` [Example 123, 6-[(3R,4R)-4-(4-({5-amino-4-(4-fluorophenoxy)-6-oxopyrimidin-1(6H)-yl]methyl)-4-hydroxypiperidine-1-carbonyl)-3-phenylpiperidine-1-carbonyl]-3-methylquinazolin-4(3H)-one] are 6.92 nM and 43.2 nM.
On the same counts, the results for `Nc1c(Oc2cccc(C(F)(F)F)c2)ncn(CC2(O)CCN(C(=O)[C@@H]3CCN(C(=O)c4sc(-c5ccc(C(F)(F)F)nc5)cc4F)C[C@H]3c3ccccc3)CC2)c1=O` [Example 124, 5-amino-3-[[1-[(3R,4R)-1-[3-fluoro-5-[16-(trifluoromethyl)-3-pyridyl]thiophene-2-carbonyl]-3-phenyl-piperidine-4-carbonyl]-4-hydroxy-4-piperidyl]methyl]-6-[3-(trifluoromethyl)phenoxy]pyrimidin-4-one] are 12 nM and 31.5 nM.

For the origin of these results see patent US20210355106A1, “NEW AMINO-PYRIMIDONYL-PIPERIDINYL DERIVATIVES, A PROCESS FOR THEIR PREPARATION AND PHARMACEUTICAL COMPOSITIONS CONTAINING THEM” (LES LABORATOIRES SERVIER, priority 2018, published 2021).
